Measured values taken from PMC3736852 (Endocrine-related cancer, 2012).
pIC50: −log10 of the molar value.

Target: T1, Na+/I− symporter (NIS) (Rattus norvegicus, UniProt Q63008)
T1 sequence (Q63008 1-618): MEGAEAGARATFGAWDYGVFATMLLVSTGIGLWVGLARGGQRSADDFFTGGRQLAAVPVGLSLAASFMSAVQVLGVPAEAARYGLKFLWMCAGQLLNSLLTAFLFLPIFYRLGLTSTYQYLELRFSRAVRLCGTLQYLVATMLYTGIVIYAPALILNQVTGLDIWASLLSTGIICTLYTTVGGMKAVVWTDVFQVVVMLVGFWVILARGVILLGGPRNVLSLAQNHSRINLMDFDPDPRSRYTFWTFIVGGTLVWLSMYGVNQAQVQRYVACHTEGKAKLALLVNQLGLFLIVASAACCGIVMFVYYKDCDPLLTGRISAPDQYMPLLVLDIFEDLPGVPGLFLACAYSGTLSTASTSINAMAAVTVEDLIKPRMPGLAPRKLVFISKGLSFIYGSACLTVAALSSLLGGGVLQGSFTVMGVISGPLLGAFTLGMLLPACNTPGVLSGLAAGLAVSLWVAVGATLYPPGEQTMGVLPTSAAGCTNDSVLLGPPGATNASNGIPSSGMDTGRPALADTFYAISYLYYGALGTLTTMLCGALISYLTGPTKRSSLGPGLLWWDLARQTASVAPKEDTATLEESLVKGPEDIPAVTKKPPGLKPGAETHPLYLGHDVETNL
Assay: inhibition of NIS-mediated […] radioiodide uptake
Type: cell-based

## [O-][Cl+3]([O-])([O-])O [perchlorate]
  pIC50: 5.52
